Values quoted from earlier work in US6387950B2, “Treatment of tumors with RARα selective retinoid compounds in combination with other anti-tumor agents” (Allergan Sales, Inc., priority 2000, dated 2002).

Assays:
carcinoma cell lines = details: in some of the cell lines; Fanjul et al. 1996; cited from earlier work
RARγ receptors = molecular target: T1, RARγ receptors (Homo sapiens, UniProt P13631); details: Fanjul et al. 1996; cited from earlier work
T1 sequence (P13631 1-454): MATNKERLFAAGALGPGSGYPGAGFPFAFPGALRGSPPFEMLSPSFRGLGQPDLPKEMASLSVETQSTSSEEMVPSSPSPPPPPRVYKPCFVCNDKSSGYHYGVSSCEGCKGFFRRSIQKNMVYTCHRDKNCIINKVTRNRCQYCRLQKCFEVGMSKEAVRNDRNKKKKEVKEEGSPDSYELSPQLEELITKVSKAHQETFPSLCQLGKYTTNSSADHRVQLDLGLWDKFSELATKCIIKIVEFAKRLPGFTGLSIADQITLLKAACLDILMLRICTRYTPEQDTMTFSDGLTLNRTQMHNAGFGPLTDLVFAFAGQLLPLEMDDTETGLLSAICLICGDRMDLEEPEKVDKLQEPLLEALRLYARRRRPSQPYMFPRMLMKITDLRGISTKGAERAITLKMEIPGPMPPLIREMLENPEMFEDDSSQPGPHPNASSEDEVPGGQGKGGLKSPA

[1] = system: MCF-7 human carcinoma cell lines; details: Kurbacher et al. 1996; cited from earlier work
[2] = system: MDA-MB 231 human carcinoma cell lines; details: Kurbacher et al. 1996; cited from earlier work
[3] = system: MCF-7 human breast cancer lines; details: Toma et al. 1997; cited from earlier work

COC(=O)c1ccc(/C(C)=C/c2ccc3c(c2)C(C)(C)CCC3(C)C)cc1 [SRI 11220]
anti-proliferative activity in combination with interferon (carcinoma cell lines): synergistic | receptor activity (RARγ receptors): RARγ agonist

O=C1O[C@H]([C@@H](O)CO)C(O)=C1O [vitamin C]
action with certain chemotherapeutic anti-tumor agents [1]: synergistic action | action with certain chemotherapeutic anti-tumor agents [2]: synergistic action

CC1=C(/C=C/C(C)=C/C=C/C(C)=C/C(=O)O)C(C)(C)CCC1 [all trans retinoic acid]
effect in combination with tamoxifen (TAM) [3]: synergistic effect | effect in combination with α interferon (α IFN) [3]: synergistic effects
